According to ChEMBL document CHEMBL5257138, “Cytosolic Enzymes Generate Cannabinoid Metabolites 7-Carboxycannabidiol and 11-Nor-9-carboxytetrahydrocannabinol” (ACS Med Chem Lett, 2023):

Assays:
Type in all cases: ADME, subcellular
[1] = Drug metabolism in human liver S9 fraction assessed as metabolite 11-COOH-THC formation at 1 uM incubated for 10 mins in presence of NAD+ by LC-MS/MS analysis; settings: s9, 10 min
[2] = Drug metabolism in human liver S9 fraction assessed as reduction in metabolite 11-COOH-THC formation by measuring hydralazine IC50 incubated for 20 mins in presence of NAD+ by LC-MS/MS analysis
[3] = Drug metabolism in human liver S9 fraction assessed as reduction in metabolite 11-COOH-THC formation by measuring WIN18446 IC50 incubated for 10 mins in presence of NAD+ by LC-MS/MS analysis
[4] = Drug metabolism in human liver S9 fraction assessed as metabolite 7-COOH-CBD formation at 1 uM incubated for 20 mins in presence of NADPH and NAD+ by LC-MS/MS analysis; settings: s9, 20 min
[5] = Drug metabolism in human liver cytosol assessed as metabolite 7-COOH-CBD formation at 1 uM incubated for 20 mins in presence of NADPH and NAD+ by LC-MS/MS analysis
[6] = Drug metabolism in human liver S9 fraction assessed as metabolite 7-COOH-CBD formation at 1 uM incubated for 20 mins in presence of NADPH by LC-MS/MS analysis; settings: s9, 20 min
[7] = Drug metabolism in human liver cytosol assessed as reduction in metabolite 7-COOH-CBD formation by measuring WIN18446 IC50 in presence of NAD+ measured after 30 mins by LC-MS/MS analysis

| Structure (SMILES) | Drug metabolism [1] | IC50 [2] [nM] | IC50 [3] [nM] | Drug metabolism [4] | Drug metabolism [5] | Drug metabolism [6] | IC50 [7] [nM] |
| --- | --- | --- | --- | --- | --- | --- | --- |
| CCCCCc1cc(O)c2c(c1)OC(C)(C)[C@@H]1CCC(CO)=C[C@@H]21 | Metabolite_Detected | 53 | > 60000 |  |  |  |  |
| C=C(C)[C@@H]1CCC(CO)=C[C@H]1c1c(O)cc(CCCCC)cc1O |  |  |  | Metabolite_Detected | Metabolite_Detected | Metabolite_Notdetected | 285 |
